Laboratory results from ChEMBL document CHEMBL5360653, “Marine Alkaloid Lepadins E and H Induce Ferroptosis for Cancer Chemotherapy” (J Med Chem, 2023).
Calls of active or inactive are those of the source. The rule behind the calls is not given here.

Columns and labels:
HeLa [1] = experiment: Cytotoxicity against human HeLa cells incubated for 72 hrs by MTT assay; format: functional, cell-based
SMMC-7721 = experiment: Cytotoxicity against human SMMC-7721 cells incubated for 72 hrs by MTT assay; format: functional, cell-based; conditions: SMMC-7721, 72 h
A549 = experiment: Cytotoxicity against human A549 cells incubated for 72 hrs by MTT assay; format: functional, cell-based; conditions: A549, 72 h
MCF7 = experiment: Cytotoxicity against human MCF7 cells incubated for 72 hrs by MTT assay; format: functional, cell-based; conditions: MCF7, 72 h
SH-SY5Y = experiment: Cytotoxicity against human SH-SY5Y cells incubated for 72 hrs by MTT assay; format: functional, cell-based
HepG2 = experiment: Cytotoxicity against human HepG2 cells incubated for 72 hrs by MTT assay; format: functional, cell-based; conditions: HepG2, 72 h
NCI-H1155 = experiment: Cytotoxicity against human NCI-H1155 cells incubated for 72 hrs by MTT assay; format: functional, cell-based; conditions: NCI-H1155, 72 h
SK-OV-3 = experiment: Cytotoxicity against human SK-OV-3 cells incubated for 72 hrs by MTT assay; format: functional, cell-based; conditions: SK-OV-3, 72 h
MDA-MB-231 = experiment: Cytotoxicity against human MDA-MB-231 cells incubated for 72 hrs by MTT assay; format: functional, cell-based; conditions: MDA-MB-231, 72 h
NCI-H1355 = experiment: Cytotoxicity against human NCI-H1355 cells incubated for 72 hrs by MTT assay; format: functional, cell-based; conditions: NCI-H1355, 72 h
L02 = experiment: Cytotoxicity against human L02 cells incubated for 72 hrs by MTT assay; format: functional, cell-based; conditions: L02, 72 h
HeLa [2] = experiment: Inhibition of colony formation in human HeLa cells treated for 24 hrs measured by paraformaldehyde based crystal violet staining analysis; format: functional, cell-based; conditions: dose 5-9 µM
HeLa [3] = experiment: Inhibition of colony migration in human HeLa cells treated for 24 hrs measured by paraformaldehyde based crystal violet staining analysis; format: functional, cell-based; conditions: dose 0.625-10 µM
HeLa [4] = experiment: Inhibition of colony formation in human HeLa cells treated at 9 uM for 24 hrs measured by paraformaldehyde based crystal violet staining analysis; format: functional, cell-based
HeLa [5] = experiment: Inhibition of colony formation in human HeLa cells treated upto 6 uM for 24 hrs measured by paraformaldehyde based crystal violet staining analysis; format: functional, cell-based
HeLa [6] = experiment: Induction of apoptosis in human HeLa cells assessed as increase in cleaved PARP expression level at 10 uM by immunoblotting analysis; format: functional, cell-based
HeLa [7] = experiment: Induction of apoptosis in human HeLa cells assessed as apoptotic cells incubated at 10 uM for 24 hrs measured by annexin V-PI staining based FITC analysis (Rvb ~ 5%); format: functional
HeLa [8] = experiment: Induction of apoptosis in human HeLa cells assessed as viable cells incubated at 4 uM for 24 hrs measured by annexin V-PI staining based FITC analysis (reference value: 93.9%); format: functional; conditions: read-out: Activity
HeLa [9] = experiment: Induction of apoptosis in human HeLa cells assessed as viable cells incubated at 6 uM for 24 hrs measured by annexin V-PI staining based FITC analysis (reference value: 93.9%); format: functional; conditions: read-out: Activity
HeLa [10] = experiment: Induction of apoptosis in human HeLa cells assessed as viable cells incubated at 8 uM for 24 hrs measured by annexin V-PI staining based FITC analysis (reference value: 93.9%); format: functional; conditions: read-out: Activity
HeLa [11] = experiment: Induction of apoptosis in human HeLa cells assessed as viable cells incubated at 10 uM for 24 hrs measured by annexin V-PI staining based FITC analysis (reference value: 93.9%); format: functional; conditions: read-out: Activity
HeLa [12] = experiment: Induction of apoptosis in human HeLa cells assessed as necrotic cells incubated at 6 uM for 24 hrs measured by annexin V-PI staining based FITC analysis (reference value: 0.70%); format: functional
HeLa [13] = experiment: Induction of apoptosis in human HeLa cells assessed as late apoptotic cells incubated at 10 uM for 24 hrs measured by annexin V-PI staining based FITC analysis (reference value: 1.81%); format: functional
HeLa [14] = experiment: Upregulation of p53 expression in human HeLa cells measured at 4 to 10 uM for 24 hrs by Western blotting analysis; format: functional, cell-based; conditions: dose 4-10 µM
HeLa [15] = experiment: Upregulation of p21 expression in human HeLa cells measured at 4 to 10 uM for 24 hrs by Western blotting analysis; format: functional, cell-based; conditions: dose 4-10 µM
HeLa [16] = experiment: Induction of apoptosis in human HeLa cells assessed as viable cells incubated at 10 uM for 24 hrs measured by annexin V-PI staining based FITC analysis (reference value: 94.2%); format: functional; conditions: read-out: Activity
HeLa [17] = experiment: Induction of ROS generation in human HeLa cells assessed as increase in ROS level; format: functional, cell-based; conditions: dose 4-10 µM
HeLa [18] = experiment: Induction of ROS generation in human HeLa cells assessed as increase in ROS level at 6 to 10 uM; format: functional, cell-based; conditions: dose 6-10 µM
HeLa [19] = experiment: Cytotoxicity against human HeLa cells assessed as increase in cell viability pretreated with NAC for 1 hr followed by compound addition at 2.5 to 20 uM for 24 hrs relative to control; format: functional; conditions: dose 2.5-20 µM
HeLa [20] = experiment: Effect on lipid peroxidation in human HeLa cells measured at 10 to 12 uM for 4 hrs by C11-BODIPY581/591 staining based flow cytometric analysis relative to control; format: functional; conditions: dose 10-12 µM
HeLa [21] = experiment: Cytotoxicity against human HeLa cells assessed as increase in cell viability pretreated with Ferrostatin-1 for 4 hrs followed by compound addition at 10 uM for 24 hrs; format: functional, cell-based
HeLa [22] = experiment: Cytotoxicity against human HeLa cells assessed as increase in cell viability pretreated with DFO for 4 hrs followed by compound addition at 10 uM for 24 hrs; format: functional, cell-based
B16-F10 [23] = experiment: Induction of ferroptosis in mouse B16-F10 cells assessed as cell viability in presence of DFO at 10 uM; format: functional, cell-based
B16-F10 [24] = experiment: Induction of ferroptosis in mouse B16-F10 cells assessed as cell viability in presence of liproxstatin-1 at 10 uM; format: functional, cell-based
B16-F10 [25] = experiment: Induction of ferroptosis in mouse B16-F10 cells assessed as downregulation of SLC7A11 level measured at 4 to 10 uM by Western blotting analysis; format: functional, cell-based; conditions: dose 4-10 µM
[26] = Toxicity in immunocompetent C57BL/6J mouse allografted with B16-F10 cells assessed as change of organ index in spleen administered at 30 mg/kg, ip daily for 14 days by hematoxylin and eosin staining analysis; format: organism-based; conditions: in vivo, 336 h, time 14 day
[27] = Toxicity in immunocompetent C57BL/6J mouse allografted with B16-F10 cells assessed as tissue damage in kidney administered at 30 mg/kg, ip daily for 14 days by hematoxylin and eosin staining analysis; format: organism-based; conditions: in vivo, 336 h, time 14 day
[28] = Toxicity in immunocompetent C57BL/6J mouse allografted with B16-F10 cells assessed as tissue damage in liver administered at 30 mg/kg, ip daily for 14 days by hematoxylin and eosin staining analysis; format: organism-based; conditions: in vivo, 336 h, time 14 day
HeLa [29] = experiment: Induction of apoptosis in human HeLa cells assessed as necrotic cells incubated at 10 uM for 24 hrs measured by annexin V-PI staining based FITC analysis (reference value: 0.58%); format: functional
HeLa [30] = experiment: Induction of apoptosis in human HeLa cells assessed as early apoptotic cells incubated at 10 uM for 24 hrs measured by annexin V-PI staining based FITC analysis (reference value: 3.28%); format: functional
HeLa [31] = experiment: Induction of ROS generation in human HeLa cells assessed as increase in ROS level at 10 uM incubated for 1 hrs (reference value: 37.8%); format: functional

SMILES | IC50 (HeLa [1]) [µM] | IC50 (SMMC-7721) [µM] | IC50 (A549) [µM] | IC50 (MCF7) [µM] | IC50 (SH-SY5Y) [µM] | IC50 (HepG2) [µM] | IC50 (NCI-H1155) [µM] | IC50 (SK-OV-3) [µM] | IC50 (MDA-MB-231) [µM] | IC50 (NCI-H1355) [µM] | IC50 (L02) [µM] | inhibition (HeLa [2]) | inhibition (HeLa [3]) | inhibition (HeLa [4]) | inhibition (HeLa [5]) | Activity (HeLa [6]) | Activity (HeLa [7]) [%] | viability at 4 µM (HeLa [8]) [%] | viability at 6 µM (HeLa [9]) [%] | viability at 8 µM (HeLa [10]) [%] | other results
CCC/C=C/C=C/C(=O)O[C@@H]1C[C@H]2[C@@H](CCCC[C@H](O)CCC)CCC[C@H]2N[C@H]1C | 2.52 | 4.09 | 4.68 | 5.03 | 5.8 | 6.2 | 7.06 | 8.02 | 8.51 | 9.3 | 12.5 | Dose-Dependent Effect | Dose-Dependent Effect | Active | inactive | Active | ~70 | 91.8 | 88.4 | 76.1 | viability at 10 µM (HeLa [11]): 26.1%; Activity (HeLa [12]): 0.94%; Activity (HeLa [13]): 5.53%; Activity (HeLa [14]): Active; Activity (HeLa [15]): Active; viability at 10 µM (HeLa [16]): 20.6%; Activity (HeLa [17]): Dose-Dependent Effect; Activity (HeLa [18]): Active; Activity (HeLa [19]): 5%; Activity (HeLa [20]): 10%; Activity (HeLa [21]): Not toxic; Activity (HeLa [22]): Not toxic; Activity (B16-F10 [23]): Active; Activity (B16-F10 [24]): Active; Activity (B16-F10 [25]): Active; Activity [26]: Non-Toxic; Activity [27]: Non-Toxic; Activity [28]: Non-Toxic
CCCCC/C=C/C(=O)O[C@@H]1C[C@H]2[C@@H](CCCC[C@H](O)CCC)CCC[C@H]2N[C@H]1C | 2.67 | 3.93 | 5.93 | 5.95 | 6.19 | 6.2 | 7.88 | 7.94 | 8.04 | 8.8 | 18.7 | Dose-Dependent Effect | Dose-Dependent Effect | Active | inactive | Active | ~50 | 91.4 | 65 | 52.2 | viability at 10 µM (HeLa [11]): 45.3%; Activity (HeLa [29]): 4.68%; Activity (HeLa [14]): Active; Activity (HeLa [15]): Active; Activity (HeLa [30]): 35.6%; Activity (HeLa [17]): Dose-Dependent Effect; Activity (HeLa [31]): 62.3%; Activity (HeLa [19]): 5%; Activity (HeLa [20]): 10%; Activity (HeLa [21]): Not toxic; Activity (HeLa [22]): Not toxic
